{"source": "patent US20050037382A1", "about": "“Methods and compositions for treating and preventing autoimmune disorders” (priority 2003, published 2005)", "tested_on": "chronic colitis induced by DSS treatment", "assay": "Apyrase administration in DSS-induced chronic colitis (weight)", "type": "in vivo, mice", "details": "apyrase 0.4 units/g weight at week five", "text": "Adult mice (55-75 day old) sex-matched hemizygous CD39+/−, CD39−/−, and CD39+/+ littermates were given 3-5% (w/v) DSS in drinking water for seven days to induce a pathological state reminiscent of acute ulcerative colitis. Mice were fasted on day 7, and sacrificed the next day. Tissue was collected for Haematoxylin and Eosin staining, immunohistochemistry staining (for CD39, CD39L1, P-selectin, Fibrin, and P2Y1, for example), Western blot analysis, and NTPDase activity. To induce chronic ulcerative colitis, mice were treated with 3% DSS for seven days followed by a one week rest period. DSS treatment was resumed for seven days followed by another rest period of seven days. Treatment was resumed in the fifth week for seven days. At least six age- and sex-matched hemizygous CD39+/−, CD39−/−, and CD39+/+ mice were studied at the end of seven days of DSS treatment (acute colitis) or 5 week DSS treatment (chronic colitis). Mice were housed in standard cages and were allowed to drink and feed ad libitum. Animals were weighed daily. To test the hypothesis that the administration of an NTPDase can delay the damage caused by colitis, CD39+/+ and CD39+/− mice, following the induction of chronic colitis by DSS treatment, were administered with apyrase, an NTPDase (see FIGS. 4A and 4B). Apyrase was administered at 0.4 units/g weight at week five following the initial treatment with DSS."}
{"substance": "apyrase", "values": [{"measurement": "weight following apyrase treatment", "setting": "CD39+/+ mice", "result": "significant gain in weight"}, {"measurement": "weight following apyrase treatment", "setting": "CD39−/+ (hemizygous) mice, compared with effect in CD39+/+ mice", "result": "further enhanced"}]}
